Reference: US5670520A, “Method for inhibiting virus replication in mammalian cells using carbostyil derivatives” (Otsuka Pharmaceutical Co., Ltd., priority 1996, dated 1997)

Tests used:
U937 cells [1] = assay: Intracellular AZT-MP, AZT-DP, AZT-TP in U937 cells by HPLC; conditions: U937 cells, 5.0 μCi/ml [3H]AZT, 2 hr
Protocol: 1.0 ml fractions were collected, and the radioactivity was measured by liquid scintillation. The retention time for AZT and AZT-MP was confirmed using cold AZT and AZT-MP (Sigma) under the same conditions.
Intracellular concentrations of [^3 H]AZT-MP, [^3 H]AZT-DP, and [^3 H]AZT-TP were measured using HPLC as described above.

[2] = tested on: HIV-1 strain 18a (AZT-sensitive); assay: microbe, parasite or virus in culture; conditions: Human immunodeficiency virus 1, PBMC, 120 h, read-out: IC50, p24 production
Protocol: (§1) More specifically, PBMC were incubated for 48 hr with 3.0 μg/ml of PHA and 10 U/ml of IL-2. Then, 10-100 TCID50 virus/ml of clinical isolate strains of HIV-1, 18a (AZT-sensitive) or 18c (AZT-resistant), were added. […] After 5 days of infection, the supernatant was collected and HIV-1 p24 antigen was measured using the p24 ELISA kit (NEN Dupont).
(§2) The combination index (CI) was calculated using multiple drug effect analysis of Chou and Tala, as described by Johnson et al, J. Infect. Dis., 159:837-844 (1989). CI values of <1, =1, and >1, indicate synergism, additive effects, and antagonism, respectively.

[3] = tested on: HIV-1 strain 18c (AZT-resistant); assay: HIV-1 p24 antigen production by infected PBMC, strain 18c; assay type: cell-based; conditions: Human immunodeficiency virus 1, 120 h; 18c infected PBMC, 5 days, AZT alone
Protocol: as §1, §2

CMV strain AD169 = assay: CMV plaque reduction assay in MRC5 cells; assay type: cell-based; conditions: Human betaherpesvirus 5, AD169, MRC5, 168 h; single compound assay, regression analysis; read-out: MIC50 (minimum concentration that reduces plaque production by 50%)
Protocol: More specifically, subconfluent monolayers of MRC5 cells (Biowhittaker, Walkersville, Md.) in 12-well tissue culture plates were exposed to a suspension of a 1:500 dilution of stock virus (CMV strain AD169; ATCC No. VR-538) in Eagles Minimal Essential Medium (MEM) supplemented with 2.0% (v/v) fetal bovine serum, for 2 hr at 37° C. to allow for virus absorption. The fluid containing unabsorbed virus was then removed, and the cell layer rinsed with Eagles MEM without serum.
The minimum compound concentration that reduces plaque production by 50% (MIC50) was calculated from single compound assays by using a regression analysis program for semilog curve fitting.
The following formula of additivity, which is appropriate for inhibitors affecting different sites, was used.

[4] = MTT cell viability of MRC5 cells; assay type: cell-based; conditions: human, mrc5 cells, read-out: MTT Cell Viability (% of control)
Protocol: More specifically, 5.0 μg/ml of MTT in Eagles MEM supplemented with 2.0% (v/v) fetal bovine serum was added to each well, and incubated at 37° C. for 6 hr. The cells were then solubilized by adding 30% (w/v) SDS in 0.02N HCl. The cultures were incubated overnight at 37° C. Then, the optical density was measured at 570 nm on a spectrophotometer.

EBV = assay: In situ hybridization of EBV DNA in anti-IgG stimulated DMSO-released Akata cells; assay type: cell-based, Epstein-Barr virus; conditions: 20 hrs after 50 μg/ml anti-IgG; vesnarinone 0-100 μg/ml; acyclovir pretreatment
Protocol: The human Burkitt's lymphoma cell line, Akata, provided by Dr. Kenzo Takada (Takada, Int. J. Cancer, 33:27-32 (1984); and Takada et al, Virus Genes, 5:147-156 (1991)), was cultured at 37° C. in RPMI 1640 medium supplemented with 15% (v/v) heat-inactivated FCS, and 20 μg/ml gentamicin.
The cell progression of Akata cells was arrested by culturing of the cells for 96 hrs in the presence of 1.5% (y/v) DMSO (Sigma, St. Louis, Mo.) (Sawai et al, Exp. Cell Res., 187:4-10 (1990); and Takase et al, Cell Growth Differ., 3:515-521 (1992)).
1 hr after transfer (release from DMSO), a goat F(ab')2 fragment of anti-human IgG antibody (Organon Teknika, Durham, N.C.) was added at a concentration of 50 μg/ml to induce productive EBV replication (Takagi et al, Virology, 185:309-315 (1991)).
3 hrs and 20 hrs after treatment with the anti-IgG, the cells were harvested for flow cytometric detection of the BamHI Z replication activator (ZEBRA), and for in situ detection of EBV DNA, respectively. […]
More specifically, cells coated on a glass slide were fixed in acetone at room temperature for 10 min. […] Positivity for EBV DNA was determined by the presence of red-colored grains and at least 1000 cells were examined under light microscopy. […]

human T cells [5] = assay: [3H]thymidine incorporation by PHA-stimulated human T cells; assay type: cell-based; conditions: 10 μg/ml PHA 48 hrs; 15 nM aphidicolin or 100 μM deferoxamine (FIG. 1B)
Protocol: More specifically, human primary T cells were separated from peripheral blood obtained by leukopheresis of healthy donors. Mononuclear cell suspensions were prepared by Ficoll-Hypaque gradient centrifugation, and T cells were obtained by E-rosette enrichment as described by Kumagai et al, J. Cell. Physiol., 137:329 (1988).
Then, 1.0 μCi of [^3 H]thymidine (6.7 Ci/mmole, ICN), was added to 2.0×10^6 cells (100 μl), and the cells were pulse-labeled for 6 hrs.

human T cells [6] = assay: Cell numbers of PHA-stimulated human T cells over 120 hrs; assay type: cell-based; conditions: 10 μg/ml PHA, 0-120 hrs; 250 μM vesnarinone, 15 nM aphidicolin or 100 μM deferoxamine
Protocol: Next, the effects of the above-described drugs on cell proliferation were evaluated over a period of 120 hrs.

human T cells [7] = assay: 30 min [3H]thymidine, [3H]uridine and [3H]amino acid incorporation; assay type: cell-based; conditions: 30 min label; 250 μM vesnarinone, 15 nM aphidicolin or 100 μM deferoxamine
Protocol: Next, the PHA-stimulated T cells were labelled for 30 min with 5.0 μCi/ml of an [^3 H]amino acid mixture (1.0 mCi/ml, Amersham, Arlington Heights, Ill.), washed twice with ice-cold PBS, and then lysed in PBS containing 1.0% (w/v) SDS, followed by addition of a mixture of 7.0% (w/v) trichloroacetic acid and 1.0% (w/v) pyrophosphate. The precipitates were loaded on GF/A filters, and washed extensively with a mixture of 7.0% (w/v) trichloroacetic acid and 1.0% (w/v) pyrophosphate. Radioactivity was measured by scintillation counting.

[8] = tested on: nucleoside and nucleobase transport in human T cells; assay: [3H]nucleoside / [3H]nucleobase transport, 1 min pulse, T cells; assay type: cell-based; conditions: 250 μM vesnarinone, 100 μM deferoxamine, 15 nM aphidicolin or 1.0 μM dipyridamole
CHO cells [9] = assay: Rescue of CHO cells from cytostatic effects of 5-FUd; assay type: cell-based, Chinese hamster; conditions: 50 nM 5-FUd, 120 hrs; 0-250 μM vesnarinone or 1.0-10 μM dipyridamole
Source text: Nucleoside transport inhibitors, such as dipyridamole or NBMPR, are known to rescue cell proliferation from the cytotoxic effects of 5-fluorouridine(5-FUd) or high dose thymidine, by inhibiting transport of this cytotoxic nucleoside analog or thymidine (Aronow et al, Mol. Cell Biol., 6:2957-2962 (1986)).

U937 cells [10] = assay: [3H]thymidine uptake in U937 cells within 1 min; assay type: cell-based, human
Protocol: Dipyridamole was prepared as a 50 mM stock solution dissolved in ethanol.

[11] = in vivo; cited from earlier work
CHO cells [12] = assay: [3H]adenosine / [3H]adenine transport in CHO cells; conditions: 0-750 μM vesnarinone or 0-100 μM dipyridamole, 1 min pulse
Raji cells = assay: [3H]adenosine / [3H]adenine transport in Raji cells; conditions: 0-750 μM vesnarinone or 0-100 μM dipyridamole, 1 min pulse
U937 cells [13] = assay: Intracellular phosphorylated AZT in U937 cells (DEAE filter); conditions: 0-250 μM vesnarinone or 0-100 nM dipyridamole; 2 hr

SMILES: Cc1cn([C@H]2C[C@H](N=[N+]=[N-])[C@@H](CO)O2)c(=O)[nH]c1=O [AZT, 3'azido-3'-deoxythymidine]
- intracellular phosphorylation of AZT (U937 cells [1]): phosphorylated to AZT-MP, but poorly phosphorylated beyond this stage to the diphosphate form
- IC50 [2]: 0.67 nM
- IC50 [3]: > 640 nM

SMILES: Nc1nc2c(ncn2COC(CO)CO)c(=O)[nH]1 [DHPG, 9-(1,3-dihydroxy-2-propoxymethyl) guanine, reference compound]
- EC50 (CMV strain AD169): > 5000 nM
- viability at 0.625 µM ([4]; DHPG 0.625 μM alone): 100%
- viability at 1.25 µM ([4]; DHPG 1.250 μM alone): 100%
- viability at 5 µM ([4]; DHPG 5.000 μM alone): 100%

SMILES: Nc1nc2c(ncn2COCCO)c(=O)[nH]1 [acyclovir, 9-[(2-hydroxyethoxy)methyl]guanine, reference compound]
- population of EBV producing cells (positivity for EBV DNA) (EBV): dramatically reduced by acyclovir pretreatment

SMILES: C[C@@]1(CO)[C@H](O)CC[C@@]2(C)[C@H]1CC[C@H]1C[C@@H]3C[C@@]12CC[C@]3(O)CO [aphidicolin]
- [3H]thymidine incorporation (human T cells [5]): also inhibited [^3 H]thymidine incorporation
- cell proliferation (cell number) (human T cells [6]): no increases in cell number were observed
- [3H]uridine incorporation, brief exposure (human T cells [7]): did not inhibit [^2 H]uridine incorporation
- transport of [3H]thymidine, [3H]adenosine, [3H]adenine, [3H]uracil [8]: had no effect on the transport of these nucleosides or nucleobases

SMILES: CC(=O)N(O)CCCCCNC(=O)CCC(=O)N(O)CCCCCNC(=O)CCC(=O)N(O)CCCCCN [deferoxamine]
- [3H]thymidine incorporation (human T cells [5]): also inhibited [^3 H]thymidine incorporation
- cell proliferation (cell number) (human T cells [6]): no increases in cell number were observed
- [3H]thymidine incorporation, brief exposure (human T cells [7]): only partially inhibited [^3 H]thymidine incorporation
- [3H]uridine incorporation, brief exposure (human T cells [7]): did not inhibit [^2 H]uridine incorporation
- transport of [3H]thymidine, [3H]adenosine, [3H]adenine, [3H]uracil [8]: had no effect on the transport of these nucleosides or nucleobases

SMILES: OCCN(CCO)c1nc(N2CCCCC2)c2nc(N(CCO)CCO)nc(N3CCCCC3)c2n1 [dipyridamole, reference compound]
- transport of [3H]thymidine, [3H]adenosine, [3H]adenine, [3H]uracil [8]: suppressed nucleoside transport, but not nucleobase transport
- reversal of cytostatic effects of 5-FUd (cell number) (CHO cells [9]): significantly reversed the cytostatic effects of 5-FUd
- uptake of thymidine (U937 cells [10]; 0-250 μM vesnarinone or 0-1000 nM dipyridamole): inhibited the uptake of thymidine in a dose-dependent manner
- IC50 (U937 cells [10]; Homo sapiens, U-937, 1 min, U937 cells, within 1 min): < 10 nM
- therapeutic range [11]: 10 to 100 nM
- [3H]adenosine and [3H]adenine transport (CHO cells [12]): inhibited adenosine transport in a selective fashion with no effect on adenine transport in its therapeutic range
- [3H]adenosine and [3H]adenine transport (Raji cells): inhibited adenosine transport in a selective fashion with no effect on adenine transport in its therapeutic range
- intracellular concentration of phosphorylated AZT (U937 cells [13]): did not affect intracellular concentrations of phosphorylated AZT
